Source: publication PMC3527104 (Bioorganic & medicinal chemistry, 2012)

Assays:
α7-nAChRs [1] = biological target: T1, α7-nAChRs (Mus musculus, UniProt P49582); conditions: CD1 mice, i.v.; frontal cortex, thalamus, striatum, hippocampus; post-injection
α7-nAChRs [2] = biological target: T1, α7-nAChRs; test: blocking dissection study with PHA543613 in mice; conditions: PHA543613 0.5 mg/kg s.c., 15 min before tracer; 90 min after tracer

T1 sequence (P49582 23-502): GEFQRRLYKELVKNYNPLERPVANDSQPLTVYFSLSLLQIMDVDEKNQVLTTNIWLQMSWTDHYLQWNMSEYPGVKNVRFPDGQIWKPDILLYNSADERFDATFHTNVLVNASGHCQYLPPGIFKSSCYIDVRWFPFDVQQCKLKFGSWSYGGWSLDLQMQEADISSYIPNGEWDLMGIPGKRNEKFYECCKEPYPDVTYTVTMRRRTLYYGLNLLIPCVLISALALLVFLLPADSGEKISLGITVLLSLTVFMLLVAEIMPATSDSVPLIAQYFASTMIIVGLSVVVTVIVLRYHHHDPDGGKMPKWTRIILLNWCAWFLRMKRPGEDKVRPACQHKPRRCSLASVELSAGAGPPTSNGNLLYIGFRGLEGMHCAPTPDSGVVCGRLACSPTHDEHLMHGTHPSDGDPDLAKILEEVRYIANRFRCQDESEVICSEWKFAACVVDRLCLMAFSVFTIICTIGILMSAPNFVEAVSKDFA

| blockade of [^11C]rac-1 binding in the cerebellum (α7-nAChRs [2]) | inhibition of [^11C]rac-1 binding in hippocampus and frontal cortex (α7-nAChRs [2]) | SMILES | time of peak radioactivity accumulation (α7-nAChRs [1]) |
| --- | --- | --- | --- |
| – | – | [11CH3]N1CC2CN(c3ccc(-c4ccc5[nH]ccc5c4)nc3)CC21 (racemic) [[^11C]rac-1, 5-(5-(6-[^11C]methyl-3,6-diazabicyclo[3.2.0]heptan-3-yl)pyridin-2-yl)-1H-indole] | 30 min |
| minimal | significantly inhibited | O=C(N[C@H]1CN2CCC1CC2)c1cc2ccoc2cn1 [PHA543613] | – |
